Converted amounts (≈) assume the structure as drawn. “And” between values parts separate entries of the source, which are not always exact repeats. Equal values may be shown once.
Legend:
[1] = system: Trypanosoma brucei rhodesiense; assay: DNDI: HAT in Vitro; type: functional, organism-based, ATCC 30027; conditions: Trypanosoma brucei, ATCC 30027
[2] = (§1) DNDI: Cytotoxicity in vitro, against rat skeletal myoblast (L-6) cells; conditions: L-6 cells (skeletal myoblasts), IC50
[3] = system: L6; assay: as §1; conditions: L-6 cells (skeletal myoblasts)
[4] = system: Trypanosoma cruzi; assay: (§2) DNDI: Chagas in Vitro; type: functional, Tulahuen C4 (LacZ)
[5] = system: Trypanosoma cruzi; assay: as §2; type: functional, organism-based, Tulahuen C4 (LacZ)
[6] = in vitro; conditions: rat, microsomes
[7] = in vitro; conditions: human, microsomes
[8] = in vitro; conditions: mouse, microsomes
[9] = in vitro; conditions: human, microsomes, t (1 / 2)
[10] = DNDI: Lipophilicity (gLogD) at pH 3; conditions: buffer, pH 3, logD
[11] = DNDI: Solubility in 0.01M HCl at pH 2 determined by nephelometry; conditions: 0.01M HCl, pH 2, Kinetic
[12] = in vitro; conditions: mouse, microsomes; remark: listed apart in the source
[13] = DNDI: Lipophilicity (gLogD) at pH 7.4; conditions: buffer, pH 7.4, logD
[14] = in vitro; conditions: rat, microsomes; remark: listed apart in the source
[15] = DNDI: Solubility in phosphate buffer at pH 6.5 determined by nephelometry; conditions: phosphate buffer, pH 6.5, Kinetic
[16] = biological target: Cytochrome P450 3A4 (Homo sapiens, UniProt P08684); assay: DNDI: Human CYP3A4 inhibition determined using 6b-hydroxylation of testosterone
[17] = in vitro; conditions: human, microsomes, EH
[18] = DNDI: Cytotoxicity in vitro, against human lung fibroblast (MRC-5) cells; conditions: MRC-5 cells (lung fibroblasts)
[19] = system: Leishmania infantum; assay: DNDI: Leish (macro) in Vitro; type: functional, organism-based, MHOM/MA(BE)/67
[20] = system: Trypanosoma cruzi; assay: DNDI: Chagas in vivo at 20 mg/kg, 20 days 2x; type: functional, Tulahuen Swiss po
[21] = biological target: T1, CYP3A4 (Homo sapiens, UniProt P08684); assay: DNDI: Human CYP3A4 inhibition at 10 uM determined using 6b-hydroxylation of testosterone; conditions: probe testosterone (6b-hydroxylation)
[22] = biological target: T1, CYP3A4; assay: DNDI: Human CYP3A4 inhibition at 1 uM determined using 6b-hydroxylation of testosterone; conditions: probe testosterone (6b-hydroxylation)
[23] = Trypanosoma cruzi, Tulahuen C4 (LacZ)

T1 sequence (P08684 whole entry): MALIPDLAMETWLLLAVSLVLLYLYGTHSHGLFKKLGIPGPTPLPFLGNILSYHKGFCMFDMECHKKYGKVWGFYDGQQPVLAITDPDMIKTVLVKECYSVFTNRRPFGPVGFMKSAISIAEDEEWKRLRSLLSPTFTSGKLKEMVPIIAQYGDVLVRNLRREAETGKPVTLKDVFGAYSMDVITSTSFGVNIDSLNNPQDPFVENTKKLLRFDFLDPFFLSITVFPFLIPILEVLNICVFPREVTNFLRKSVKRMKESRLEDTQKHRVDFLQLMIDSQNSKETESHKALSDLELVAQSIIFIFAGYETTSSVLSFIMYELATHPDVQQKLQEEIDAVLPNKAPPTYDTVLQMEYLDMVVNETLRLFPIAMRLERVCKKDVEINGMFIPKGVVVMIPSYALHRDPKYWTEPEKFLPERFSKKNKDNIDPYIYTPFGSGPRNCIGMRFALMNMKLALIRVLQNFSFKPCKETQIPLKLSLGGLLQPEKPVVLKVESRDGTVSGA
Sequence of Cytochrome P450 3A4 (P08684 whole entry): as above

| Compound | IC50 [1] | IC50 [2] | IC90 [4] | IC50 [5] | IC50 [5, 23] | IC90 [4, 23] | microsomal CLint [7] | half-life [9] | chromatographic logD [10] | solubility kinetic [11] | chromatographic logD [13] | solubility kinetic [15] | IC50 [16] | hepatic extraction ratio [17] | inhibition at 10 µM [21] | further results |
| --- | --- | --- | --- | --- | --- | --- | --- | --- | --- | --- | --- | --- | --- | --- | --- | --- |
| CCN(c1ccccc1)S(=O)(=O)c1ccc(Cl)c(NC(=O)CN(C)C2CCN(C)CC2)c1 | 5430 nM | 51500 nM | > 10000 nM |  |  |  |  |  |  |  |  |  |  |  |  | IC50 [3]: 54100 nM |
| CO/N=C(\C)c1ccc(-n2ccnc2)c(NC(=O)c2ccc(-c3ccccc3)nc2)c1 |  | > 100000 nM | 24.5 nM | 9 nM | 13 nM | 29.1 nM | 26 µL/min/mg | 66 min | 2.5 | > 100 µg/mL | 3.3 |  |  |  |  | microsomal CLint [6]: 48 µL/min/mg; half-life [8]: 53 min; microsomal CLint [12]: 33 µL/min/mg; half-life [14]: 36 min |
| CCOC(COc1ccc2cc(Br)ccc2c1)Cn1ccnc1.O=CO (stereo unspecified) | > 10000 nM | 44200 nM |  |  | 16 nM | 59 nM | 14 µL/min/mg | 120 min | 3.3 | > 100 µg/mL | 4.5 | 12.5 µg/mL | < 250 nM | 0.36 |  |  |
| CCN(CC)S(=O)(=O)c1ccc(-n2ccnc2)c(NC(=O)c2cnc(-c3ccccc3)nc2)c1 | > 10000 nM | > 100000 nM | 23.5 nM and 8.03 nM | 6.5 nM and 0.8 nM |  |  | 166 µL/min/mg | 10 min | 2.7 | 50 µg/mL (≈ 105 µM) | 3.2 | 1.6 µg/mL (≈ 3.36 µM) | 20000 nM | 0.9 |  |  |
| CCN(c1ccccc1)S(=O)(=O)c1ccc(Cl)c(NC(=O)CNC2CCCN(C)C2)c1.O=CO (stereo unspecified) | 910 nM | 45700 nM |  |  | > 1000 nM | > 1000 nM | 89 µL/min/mg | 19.5 min | -0.12 | 101 µg/mL | 1.56 | 94.4 µg/mL | 16300 nM | 0.815 |  |  |
| O=C(Nc1cc(C(F)(F)F)ccc1-n1ccnc1)c1cnc(-c2ccccc2)nc1 | > 10000 nM | > 100000 nM |  |  | > 100 nM | > 100 nM |  |  |  |  |  |  |  |  |  | IC50 [18]: > 64000 nM; IC50 ([19]; Leishmania infantum, MHOM/MA(BE)/67): > 64000 nM |
| CN1CCCC(CNCC(O)COc2ccc3cc(Br)ccc3c2)C1 (stereo unspecified) | 7120 nM | 19000 nM |  |  | 5560 nM | > 10000 nM |  |  |  |  |  |  |  |  |  | IC50 [19]: 2030 nM and 1700 nM and 540 nM |
| CCN(Cc1cccnc1)c1cncc(-c2nc3ccccc3s2)c1 | > 10000 nM | 31800 nM |  |  | 171 nM | 354 nM | 414 µL/min/mg | 4.2 min | 1.56 | 66.3 µg/mL (≈ 191 µM) | 3.67 | 3.52 µg/mL (≈ 10.2 µM) | 790 nM | 0.953 |  |  |
| CO/N=C(\C)c1ccc(-n2ccnc2)c(NC(=O)c2cnc(-c3ccccc3)s2)c1 | > 10000 nM |  | 2.77 nM | 0.9 nM | 0.617 nM | 3 nM |  |  |  |  |  |  |  |  |  | PCR cure rate [20]: 0% |
| O=C(Nc1ccccc1-n1ccnc1)c1cnc(-c2ccccc2)nc1 |  | > 100000 nM |  |  | 63 nM | 148 nM | 18 µL/min/mg | 99 min | 1.3 | > 100 µg/mL | 2.4 |  | > 10000 nM | 0.4 | 27% |  |
| CS(=O)(=O)N(Cc1cnc[nH]1)c1ccc(-c2nc3ccccc3s2)cc1 |  |  |  |  |  |  | 55 µL/min/mg | 32 min | 1.6 | > 100 µg/mL | 2.3 |  | 1500 nM | 0.68 | 85% | inhibition at 1 µM [22]: 48%; PCR cure rate [20]: 0%; Parasitemia clearance after immunosuppression [20]: 0%; Parasitemia clearance after treatment [20]: 100% |
| CO/N=C(\C)c1ccc(-n2ccnc2)c(NC(=O)c2cnc(-c3ccccn3)s2)c1 | > 10000 nM | 68000 nM | 17 nM | 5.5 nM | 2.93 nM | 19.4 nM | 20 µL/min/mg | 85 min | 1.8 | > 100 µg/mL | 2.7 | 6.3 µg/mL (≈ 15.1 µM) |  |  |  | IC50 [3]: > 100000 nM; half-life [8]: 23 min; microsomal CLint [12]: 75 µL/min/mg |
| Cc1ccc(-n2ccnc2)c(NC(=O)c2cnc(-c3ccccc3)nc2)c1 |  | > 100000 nM |  |  | 23 nM | 151 nM | 93 µL/min/mg | 19 min | 1.6 | > 100 µg/mL | 2.7 |  | > 10000 nM | 0.78 | 49% | inhibition at 1 µM [22]: 15% |
| CCN(Cc1c[nH]cn1)c1ccc(-c2nc3ccccc3s2)cc1 |  | 36000 nM |  |  | 15.3 nM | 156 nM | < 7 µL/min/mg | > 250 min | 2.1 | > 100 µg/mL | 3.4 | 3.1 µg/mL (≈ 9.27 µM) | 4000 nM | < 0.23 | 80% | inhibition at 1 µM [22]: 37%; PCR cure rate [20]: 0%; Parasitemia clearance after immunosuppression [20]: 0%; Parasitemia clearance after treatment [20]: 80% |
| CS(=O)(=O)N(Cc1c[nH]cn1)c1ccc(-c2ccc(F)cc2)cc1F |  | > 100000 nM | 9.1 nM | 2.6 nM | 2.2 nM | 8.4 nM | 28 µL/min/mg | 61 min | 1.6 | > 100 µg/mL | 2.3 |  | < 1000 nM | 0.52 | 86.1% | inhibition at 1 µM [22]: 51.6% |
| CS(=O)(=O)N(Cc1cnc[nH]1)c1cc(F)cc(-c2nc3ccccc3s2)c1 |  | 66900 nM | 569 nM and > 1000 nM | 65 nM and 74 nM | 70 nM | 615 nM |  |  |  |  |  |  |  |  |  | IC50 [3]: 63900 nM |
| CO/N=C(\C)c1ccc(-n2ccnc2)c(NC(=O)c2cncc(-c3ccccc3)n2)c1 |  | 4160 nM | 639 nM | 5.3 nM | 6.2 nM | 769 nM | 117 µL/min/mg | 15 min | 2.8 | > 50 µg/mL | 3.7 | 3.1 µg/mL (≈ 7.52 µM) | < 1000 nM | 0.82 | 91.9% | IC50 [3]: 6360 nM; inhibition at 1 µM [22]: 75.9% |
| Cl.NCC(=O)N(Cc1cccnc1)c1ccc(-c2nc3ccccc3s2)cc1 |  |  |  |  |  |  |  |  |  |  |  |  |  |  |  | PCR cure rate [20]: 20% |

From ChEMBL document CHEMBL2448688, “Selection and optimization of hits from a high-throughput phenotypic screen against Trypanosoma cruzi. Exported from HEOS 25-Oct-2013. See also related datasets CHEMBL3137440 and CHEMBL3137386”
